Data taken from PubChem BioAssay AID180 (DTP/NCI, 2004).
Values joined by “and” are separate entries in the source; they are usually repeats but may differ in a detail not shown here. Equal values may be shown once.

Tested on: BDF1 mice, Adenocarcinoma 755 s.c., tumor weight T/C
Experiment: NCI In Vivo Anticancer Drug Screen. Data for tumor model Adenocarcinoma 755 (subcutaneous) in B6D2F1 (BDF1) mice
Conditions: endpoint: mean tumor weight, higher = larger tumour
Summary of the method: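 Tumor-bearing mice receive test compound while controls get vehicle alone. Antitumor effect is scored from survival or tumor dimensions as a T/C quotient.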

[1] = dose: 20.0 mg/kg/injection, schedule: Q01DX011 (ip), vehicle: methylcellulose (MC)
[2] = dose: 25.0 mg/kg/injection, schedule: Q01DX011 (ip), vehicle: carboxymethylcellulose (CMC)
[3] = dose: 50.0 mg/kg/injection, schedule: Q01DX011 (ip), vehicle: carboxymethylcellulose (CMC)
[4] = dose: 225.0 mg/kg/injection, schedule: Q01DX011 (ip), vehicle: methylcellulose (MC)
[5] = dose: 25.0 mg/kg/injection, schedule: Q01DX011 (ip), vehicle: methylcellulose (MC)

CN(N=O)C(N)=O
T/C (dose: 2.5 mg/kg/injection, schedule: Q01DX011 (ip), vehicle: methylcellulose (MC)): 109 % of control | T/C (dose: 2.81 mg/kg/injection, schedule: Q01DX011 (ip), vehicle: carboxymethylcellulose (CMC)): 78 % of control | T/C (dose: 3.16 mg/kg/injection, schedule: Q01DX011 (ip), vehicle: carboxymethylcellulose (CMC)): 78 % of control | T/C (dose: 5.0 mg/kg/injection, schedule: Q01DX011 (ip), vehicle: methylcellulose (MC)): 97 % of control | T/C (dose: 5.62 mg/kg/injection, schedule: Q01DX011 (ip), vehicle: carboxymethylcellulose (CMC)): 120 % of control | T/C (dose: 6.32 mg/kg/injection, schedule: Q01DX011 (ip), vehicle: carboxymethylcellulose (CMC)): 76 % of control | T/C (dose: 6.33 mg/kg/injection, schedule: Q01DX011 (ip), vehicle: carboxymethylcellulose (CMC)): 79 % of control | T/C (dose: 7.2 mg/kg/injection, schedule: Q01DX011 (ip), vehicle: carboxymethylcellulose (CMC)): 108 % of control | T/C (dose: 9.0 mg/kg/injection, schedule: Q01DX011 (ip), vehicle: carboxymethylcellulose (CMC)): 77 % of control | T/C (dose: 10.0 mg/kg/injection, schedule: Q01DX011 (ip), vehicle: methylcellulose (MC)): 87 % of control | T/C (dose: 10.12 mg/kg/injection, schedule: Q01DX011 (ip), vehicle: carboxymethylcellulose (CMC)): 109 % of control and 119 % of control | T/C (dose: 12.0 mg/kg/injection, schedule: Q01DX011 (ip), vehicle: carboxymethylcellulose (CMC)): 79 % of control | T/C (dose: 13.0 mg/kg/injection, schedule: Q01DX011 (ip), vehicle: carboxymethylcellulose (CMC)): 93 % of control | T/C (dose: 15.0 mg/kg/injection, schedule: Q01DX011 (ip), vehicle: carboxymethylcellulose (CMC)): 97 % of control and 85 % of control | T/C (dose: 18.0 mg/kg/injection, schedule: Q01DX011 (ip), vehicle: carboxymethylcellulose (CMC)): 13 % of control | T/C [1]: 27 % of control | T/C (dose: 22.5 mg/kg/injection, schedule: Q01DX011 (ip), vehicle: carboxymethylcellulose (CMC)): 21 % of control and 42 % of control | T/C [2]: 24 % of control

CC1CCC(n2cnc3c(N)ncnc32)O1 (stereo not drawn)
T/C (dose: 30.0 mg/kg/injection, schedule: Q01DX011 (ip), vehicle: saline): 108 % of control | T/C (dose: 60.0 mg/kg/injection, schedule: Q01DX011 (ip), vehicle: saline): 119 % of control | T/C (dose: 120.0 mg/kg/injection, schedule: Q01DX011 (ip), vehicle: saline): 66 % of control | T/C (dose: 240.0 mg/kg/injection, schedule: Q01DX011 (ip), vehicle: saline): 25 % of control

CC/C(=C(/CC)c1ccc(O)cc1)c1ccc(O)cc1
T/C (dose: 40.0 mg/kg/injection, schedule: Q01DX011 (sc), vehicle: steriod suspending solution): 114 % of control | T/C (dose: 41.2 mg/kg/injection, schedule: Q01DX011 (sc), vehicle: steriod suspending solution): 53 % of control | T/C (dose: 62.5 mg/kg/injection, schedule: Q01DX011 (sc), vehicle: steriod suspending solution): 41 % of control | T/C (dose: 68.66 mg/kg/injection, schedule: Q01DX011 (sc), vehicle: steriod suspending solution): 45 % of control | T/C (dose: 80.0 mg/kg/injection, schedule: Q01DX011 (sc), vehicle: steriod suspending solution): 178 % of control | T/C (dose: 103.0 mg/kg/injection, schedule: Q01DX011 (sc), vehicle: steriod suspending solution): 38 % of control and 44 % of control and 50 % of control | T/C (dose: 125.0 mg/kg/injection, schedule: Q01DX011 (sc), vehicle: steriod suspending solution): 33 % of control | T/C (dose: 160.0 mg/kg/injection, schedule: Q01DX011 (sc), vehicle: steriod suspending solution): 111 % of control | T/C (dose: 250.0 mg/kg/injection, schedule: Q01DX011 (sc), vehicle: steriod suspending solution): 48 % of control | T/C (dose: 320.0 mg/kg/injection, schedule: Q01DX011 (sc), vehicle: steriod suspending solution): 98 % of control

NNC(=O)c1nsnc1NC(N)=O
T/C (dose: 43.0 mg/kg/injection, schedule: Q01DX011 (ip), vehicle: carboxymethylcellulose (CMC)): 39 % of control | T/C (dose: 60.0 mg/kg/injection, schedule: Q01DX011 (ip), vehicle: carboxymethylcellulose (CMC)): 18 % of control

CC1CN1P(=S)(N1CCCCC1)N1CC1C (stereo not drawn)
T/C [2]: 51 % of control | T/C [3]: 150 % of control | T/C (dose: 56.0 mg/kg/injection, schedule: Q01DX011 (ip), vehicle: carboxymethylcellulose (CMC)): 64 % of control | T/C (dose: 100.0 mg/kg/injection, schedule: Q01DX011 (ip), vehicle: carboxymethylcellulose (CMC)): 121 % of control | T/C (dose: 112.0 mg/kg/injection, schedule: Q01DX011 (ip), vehicle: carboxymethylcellulose (CMC)): 19 % of control | T/C (dose: 200.0 mg/kg/injection, schedule: Q01DX011 (ip), vehicle: carboxymethylcellulose (CMC)): 102 % of control

CCCCCCCCCCCCCCCCCCN(C)C
T/C (dose: 12.0 mg/kg/injection, schedule: Q01DX011 (ip), vehicle: distilled water + alcohol): 61 % of control | T/C (dose: 18.0 mg/kg/injection, schedule: Q01DX011 (ip), vehicle: distilled water + alcohol): 43 % of control | T/C (dose: 27.0 mg/kg/injection, schedule: Q01DX011 (ip), vehicle: distilled water + alcohol): 51 % of control | T/C (dose: 40.0 mg/kg/injection, schedule: Q01DX011 (ip), vehicle: distilled water + alcohol): 36 % of control

CS(=O)(=O)OCCC(=O)NCCCCCNC(=O)CCOS(C)(=O)=O
T/C (dose: 57.0 mg/kg/injection, schedule: Q01DX011 (ip), vehicle: methylcellulose (MC)): 64 % of control | T/C (dose: 113.0 mg/kg/injection, schedule: Q01DX011 (ip), vehicle: methylcellulose (MC)): 53 % of control | T/C [4]: 30 % of control

Nc1nc(=S)c2ncn(C3CCCCC3)c2[nH]1
T/C (dose: 12.5 mg/kg/injection, schedule: Q01DX011 (ip), vehicle: methylcellulose (MC)): 81 % of control | T/C [5]: 86 % of control | T/C (dose: 50.0 mg/kg/injection, schedule: Q01DX011 (ip), vehicle: methylcellulose (MC)): 50 % of control

CNc1nc(SCc2ccc(Cl)cc2Cl)ncc1C
T/C (dose: 15.0 mg/kg/injection, schedule: Q01DX011 (ip), vehicle: methylcellulose (MC)): 84 % of control | T/C (dose: 31.0 mg/kg/injection, schedule: Q01DX011 (ip), vehicle: methylcellulose (MC)): 69 % of control | T/C (dose: 62.0 mg/kg/injection, schedule: Q01DX011 (ip), vehicle: methylcellulose (MC)): 67 % of control | T/C (dose: 125.0 mg/kg/injection, schedule: Q01DX011 (ip), vehicle: methylcellulose (MC)): 73 % of control | T/C (dose: 250.0 mg/kg/injection, schedule: Q01DX011 (ip), vehicle: methylcellulose (MC)): 61 % of control

COC1C(OC(N)=O)C(O)C(Oc2ccc3c(O)c(NC(=O)c4ccc(O)c(CC=C(C)C)c4)c(=O)oc3c2C)OC1(C)C (stereo not drawn)
T/C (dose: 50.0 mg/kg/injection, schedule: Q01DX011 (ip), vehicle: saline): 78 % of control | T/C (dose: 100.0 mg/kg/injection, schedule: Q01DX011 (ip), vehicle: saline): 42 % of control | T/C (dose: 200.0 mg/kg/injection, schedule: Q01DX011 (ip), vehicle: saline): 60 % of control

Cn1c(=O)c2[nH]c(N/N=C/c3ccccc3)nc2n(C)c1=O
T/C [1]: 56 % of control | T/C [5]: 45 % of control and 53 % of control | T/C (dose: 80.0 mg/kg/injection, schedule: Q01DX011 (ip), vehicle: methylcellulose (MC)): 73 % of control | T/C [4]: 41 % of control and 46 % of control

O=c1[nH]c(S(=O)(=O)F)nc2nc[nH]c12
T/C [2]: 104 % of control | T/C (dose: 75.0 mg/kg/injection, schedule: Q01DX011 (ip), vehicle: carboxymethylcellulose (CMC)): 53 % of control

CC(=O)O[C@]1(C(C)=O)CC[C@H]2[C@@H]3C[C@H](C)C4=CC(=O)C=C[C@]4(C)[C@@]3(F)[C@@H](O)C[C@@]21C
T/C (dose: 4.5 mg/kg/injection, schedule: Q01DX011 (sc), vehicle: steriod suspending solution): 95 % of control | T/C (dose: 9.0 mg/kg/injection, schedule: Q01DX011 (sc), vehicle: steriod suspending solution): 60 % of control | T/C (dose: 15.0 mg/kg/injection, schedule: Q01DX011 (sc), vehicle: steriod suspending solution): 54 % of control | T/C (dose: 18.0 mg/kg/injection, schedule: Q01DX011 (sc), vehicle: steriod suspending solution): 34 % of control | T/C (dose: 30.0 mg/kg/injection, schedule: Q01DX011 (sc), vehicle: steriod suspending solution): 34 % of control | T/C (dose: 60.0 mg/kg/injection, schedule: Q01DX011 (sc), vehicle: steriod suspending solution): 19 % of control | T/C (dose: 120.0 mg/kg/injection, schedule: Q01DX011 (sc), vehicle: steriod suspending solution): 8 % of control | T/C (dose: 136.0 mg/kg/injection, schedule: Q01DX011 (sc), vehicle: steriod suspending solution): 17 % of control

Cn1c(=O)c2c(nc(N(CCO)CCO)n2C)n(C)c1=O
T/C (dose: 480.0 mg/kg/injection, schedule: Q01DX011 (ip), vehicle: saline): 112 % of control

CCCCNC(=O)c1n[se]nc1NC(N)=O
T/C (dose: 4.0 mg/kg/injection, schedule: Q01DX011 (ip), vehicle: carboxymethylcellulose (CMC)): 94 % of control | T/C (dose: 8.0 mg/kg/injection, schedule: Q01DX011 (ip), vehicle: carboxymethylcellulose (CMC)): 91 % of control | T/C (dose: 16.0 mg/kg/injection, schedule: Q01DX011 (ip), vehicle: carboxymethylcellulose (CMC)): 61 % of control | T/C (dose: 37.5 mg/kg/injection, schedule: Q01DX011 (ip), vehicle: carboxymethylcellulose (CMC)): 166 % of control | T/C [3]: 119 % of control
